# According to patent US6020363A, “Isocoumarin derivatives and use thereof in drugs” (Mercian Corporation, priority 1998, dated 2000):
# Columns and labels:
# [1] = system: various animal cells and human cancer cells; conditions: cited from earlier work
# [2] = system: neogenesis of tumor vessels induced by the transplanted mouse tumor S180; test: Inhibitory Effect on Vascularization Using the Mouse Back Subcutaneous Transplantation Method; assay type: in vivo, male ICR mouse; conditions: for Vascularization score: oral 100 mg/kg, 5 days, mean ± SE
# Description: The inhibitory effect of Compounds 1 and 3 in accordance with the present invention on the neogenesis of tumor vessels induced by the transplanted mouse tumor S180 was tested using the mouse back subcutaneous transplantation method. Specifically, 1×10^7 S180 cells were injected into a chamber formed by attaching a Millipore filter having a pore size of 0.45 μm to either side of a Millipore ring. After the injection hole was stopped up, this chamber was transplanted into an air sac formed beneath the skin of the back of a male ICR mouse (9-10 weeks old). Starting from the day of transplantation, a test compound or a solvent control comprising a 0.5% carboxymethylcellulose solution was orally administered for 5 days. After the skin was separated on the fifth day of transplantation, an O-ring of 10 mm internal diameter having the same shape as the Millipore ring was placed on the part of the skin which had been in contact with the chamber, observed under a stereoscopic microscope, and photographed.
# In the photographs so taken, the degree of vascularization was rated 0, 1, 2 or 3 according to the number of 3 mm or longer tortuous blood vessels characteristic of tumoral vessels, and scored on the following basis.
# 0: No tumoral vessel was observed.
# 1: One tumoral vessel was observed.
# 2: Two tumoral vessels were observed.
# 3: Three or more tumoral vessels were observed.
# adjuvant arthritis = conditions: oral administration, rats; cited from earlier work
# [3] = system: collagen-induced arthritis; conditions: oral administration, mice; cited from earlier work
# [4] = Levels of Orally Administered Test Compounds in Blood Plasma; assay type: in vivo, male ICR mice
# Description: Each of Compound 3 and MI43 was orally administered to fasted male ICR mice (weighing 18-21 g) in a dose of 25 mg/kg. Blood samples were collected from the mice 5 minutes, 30 minutes, 4 hours, 8 hours and 24 hours after administration (3 mice per point for Compound 3 and 5 mice per point for MI43). These blood samples were centrifuged to obtain blood plasma samples. Each of the blood plasma samples was subjected to the following pretreatment and then analyzed by high-performance liquid chromatography (HPLC). 1.8 ml of a saturated aqueous solution of ammonium sulfate and 1.0 ml of methanol were added to and mixed with 0.2 ml of the blood plasma sample. This mixture was shaken with 3.5 ml of ethyl acetate. After this mixture was centrifuged, the ethyl acetate layer was separated. Moreover, the aqueous layer was shaken with 3.5 ml of ethyl acetate, followed by centrifugation. The ethyl acetate layer thus obtained was combined with the previously separated ethyl acetate layer, and this mixture was evaporated to dryness under reduced pressure. The resulting residue was redissolved in 0.2 ml of a 50% aqueous solution of acetonitrile and used as a sample for HPLC.
# The analytical conditions for HPLC (using the CCTD system manufactured by Toso Co., Ltd.) were as follows: A YMC A-312 column (ODS 6×150 mm; manufactured by YMC Co., Ltd.) was used as the column. As the mobile phase, a 60:40 mixture of acetonitrile and 0.1% aqueous TFA was used for Compound 3, and a 40:60 mixture of acetonitrile and 0.1% aqueous TFA was used for MI43. The rest compound was eluted at a flow velocity of 1.0 ml/min and detected by UV light at 244 nm.
# [5] = system: collagen-induced arthritis; test: Inhibitory Effect on Collagen-Induced Arthritis (No. 2), arthritis score; assay type: in vivo, DBA/1J mice; conditions: oral
# Description: (§1) The preventive effect on the onset of collagen-induced arthritis was tested by using DBA/1J mice in groups of 5-8. Specifically, type II collagen was mixed with an equal volume of Freund's complete adjuvant and emulsified to prepare a 1 mg/ml emulsion. Mice were sensitized by administering 0.1 ml of this emulsion intracutaneously to the root of the tail. After 21 days, the mice were additionally immunized by emulsifying type II collagen in the same manner as before and administering 0.1 ml of the emulsion intraperitoneally so as to induce arthritis.
# Animals having arthritis induced in the same manner as described above were used in groups of 7-8. Compound 3 was orally administered, once a day, for 21 days following the additional immunization in a dose of 1, 3 or 10 mg/kg body weight. For comparative purposes, MI43 was similarly administered to another group in a dose of 30 mg/kg body weight. According to the degree of rubor, swelling and rigidity in each of the forelegs and hind legs of the experimental animals, their inhibitory effect on collagen-induced arthritis was evaluated on the following basis by a score ranging from 0 to 4 (with a maximum value of 16).
# 0: No symptom is observed.
# 2: Two or more small joints, or a relatively large joint such as that of the wrist or ankle, show rubor or swelling.
# 4: The total swelling of the hand or foot reaches its peak and, moreover, is accompanied by joint rigidity.
# Acute toxicity in mice = assay type: in vivo, DBA/1J mice; conditions: 100 mg/kg; for evidence of toxicity, single administration: mouse, in vivo; for mortality, single administration: oral or intraperitoneal, eight DBA/1J mice
# Description: (§2) Among the compounds in accordance with the present invention, each of Compounds 1, 2 and 3 was orally or intraperitoneally administered to eight DBA/1J mice in a dose of 100 mg/kg body weight. […] This seems to indicate that the compounds used in the present invention have no or very little, if any, acute toxicity. Moreover, Compound 1, in a dose of 100 mg/kg body weight, or Compound 3, in a dose of 30 mg/kg body weight, was orally administered to eight mice of the aforesaid strain for 40 days. […] Thus, the compounds of the present invention have little subacute toxicity. Since other compounds in accordance with the present invention are estimated to have similar properties, the compounds of the present invention can be used very safely.
# [6] = system: collagen-induced arthritis; test: Inhibitory Effect on Collagen-Induced Arthritis (No. 1), sole thickness; assay type: in vivo, DBA/1J mice; conditions: mean ± SD
# Description: as §1
# Starting from the day of the first sensitization with type II collagen, Compound 1 was orally administered, once a day, for 43 days in a dose of 10 or 30 mg/kg body weight. Similarly, each of Compounds 2 and 3 was intraperitoneally administered, once a day, for 43 days in a dose of 1 or 10 mg/kg body weight. Their inhibitory effect on collagen-induced arthritis was evaluated by measuring the sole thicknesses of the hind legs periodically with digital vernier calipers.
# [7] = set-up: species or system DBA/1J mice; conditions: mouse, in vivo, po, 100 mg/kg
# Description: as §2
# carrageenin edema = test: Effect on Carrageenin Edema; assay type: in vivo, ICR mice
# Description: The effect on carrageenin edema was tested by using ICR mice in groups of 6-7. Specifically, Compound 3 was orally administered thereto in a dose of 3 or 30 mg/kg body weight. As a positive control drug, indomethacin was similarly administered in a dose of 20 mg/kg body weight. After 30 minutes, 25 μl of a 1% carrageenin solution was subcutaneously injected into the sole of the right hind leg. Two hours after the administration of carrageenin, the thickness of the sole was measured with digital vernier calipers, and the degree of edema (%) based on the thickness measured before administration was calculated.
compound,measurement,setting,value
"COc1cc(O)c2c(=O)oc(CO)cc2c1 [MI43, 3-hydroxymethyl-6-methoxy-8-hydroxy-1H-2-benzopyran-1-one, reference compound]",growth-inhibiting activity (in words),[1],growth-inhibiting activity against various animal cells and human cancer cells
same,Vascularization score,"[2]; n = 11, control 2.93 ± 0.07, Table 4",1.09 ± 0.39
same,inhibition of adjuvant arthritis (in words),adjuvant arthritis,significantly inhibit adjuvant arthritis in rats
same,inhibition of collagen-induced arthritis (in words),[3],significantly inhibit adjuvant arthritis in rats and collagen-induced arthritis in mice
same,concentration at 5 min,"[4]; mouse, plasma, oral 25 mg/kg, 5 min, read-out: Concentration of unchanged M143 in blood plasma, mean",811 ng/mL
same,concentration at 0.5 h,"[4]; mouse, plasma, oral 25 mg/kg, 30 min, read-out: Concentration of unchanged M143 in blood plasma, mean",155 ng/mL
same,concentration at 4 h,"[4]; mouse, plasma, oral 25 mg/kg, 4 hr, read-out: Concentration of unchanged M143 in blood plasma, mean",48 ng/mL
same,Tmax,"[4]; mouse, plasma, unchanged compound, oral 25 mg/kg, read-out: time of peak / highest plasma level after administration (converted)",5 min
same,number of metabolites detected in plasma,[4]; oral 25 mg/kg,5
same,plasma concentration course after 5 minutes (in words),"[4]; unchanged MI43, oral 25 mg/kg",decreased sharply
same,reduction in arthritis score (in words),[5]; 30 mg/kg body weight,no significant reduction in arthritis score
same,Score after 37 days,"[5]; 30 mg/kg/day, mean ± SE, maximum 16, control 9.25 ± 1.35",5.29 ± 1.77
"COc1cc(O)c2c(=O)oc(C(=O)O)cc2c1 [Compound 1, 8-hydroxy-6-methoxy-1-oxo-1H-2-benzopyran-3-carboxylic Acid]",Vascularization score,"[2]; n = 9, p < 0.05 vs control (3.00 ± 0.00), Table 3",1.67 ± 0.53
same,inhibition of vascularization induced by tumor cell S180 (in words),"[2]; oral, 100 mg/kg body weight",significantly inhibited vascularization
same,"evidence of toxicity, single administration",Acute toxicity in mice,no animal showed evidences of toxicity
same,"mortality, single administration",Acute toxicity in mice,No animal died
same,"Sole thickness (sum of left and right, mm), after 37 days","[6]; oral, 10 mg/kg/day, **p < 0.01 vs control (8.02 ± 0.82)",6.44 ± 0.40 mm
same,"Sole thickness (sum of left and right, mm), after 37 days","[6]; oral, 30 mg/kg/day, **p < 0.01 vs control (8.02 ± 0.82)",6.12 ± 0.22 mm
same,"evidence of toxicity, 40 days",[7],no animal showed evidences of toxicity
same,"mortality, 40 days",[7],No animal died
"COc1ccc2c(c1)c(CC(=O)O)c(C)n2C(=O)c1ccc(Cl)cc1 [Indomethacin, reference compound]",effect on carrageenin edema (in words),carrageenin edema; 20 mg/kg,significan inhibitory effect
same,Degree of edema (%),"carrageenin edema; oral 20 mg/kg, 2 h after carrageenin, mean ± SE, **p < 0.01 vs control (47.4 ± 2.8)",18.5 ± 3.5%
"COc1cc(O)c2c(=O)oc(CC(=O)O)cc2c1 [Compound 2, (8-hydroxy-6-methoxy-1-oxo-1H-2-benzopyran-3-yl)acetic Acid]","evidence of toxicity, single administration",Acute toxicity in mice,no animal showed evidences of toxicity
same,"mortality, single administration",Acute toxicity in mice,No animal died
same,"Sole thickness (sum of left and right, mm), after 37 days","[6]; intraperitoneal, 1 mg/kg/day, *p < 0.05 vs control (8.02 ± 0.82)",6.81 ± 1.07 mm
same,"Sole thickness (sum of left and right, mm), after 37 days","[6]; intraperitoneal, 10 mg/kg/day, *p < 0.05 vs control (8.02 ± 0.82)",7.19 ± 0.40 mm
